Measured values: PMC10785037, “Mechanisms for cardiac calcium pump activation by its substrate and a synthetic allosteric modulator using fluorescence lifetime imaging” (PNAS Nexus, 2023)
Blank lines part the entries; values can stand above or below the molecule they belong to.

Tests used:
Format in all cases: biochemical
[1] = molecular target: T1, SERCA2a (cardiac sarcoplasmic reticulum Ca2+-ATPase) (Sus scrofa, UniProt P11607); test: NADH-coupled ATPase assay, ten-point concentration-response (activation)
T1 construct: gene ATP2A2; native SERCA2a in enriched pig cardiac SR microsomes

[2] = molecular target: T1, SERCA2a (cardiac sarcoplasmic reticulum Ca2+-ATPase); test: NADH-coupled ATPase assay (activation; bell-shaped curve, aggregation suspected at high concentration)
Text: NADH-coupled ATPase assay (activation; bell-shaped curve, aggregation suspected at high concentration) on SERCA2a (cardiac sarcoplasmic reticulum Ca2+-ATPase) | CP-154526 also activates SERCA2a in the high nM to low µM range, with an observed maximal increase in Vmax

Na+/K+-ATPase NKA-α1 = molecular target: T2, Na+/K+-ATPase NKA-α1 (Sus scrofa, UniProt P05024); test: ATPase activity assay
T2 construct: gene ATP1A1

T1 sequence (P11607 1-997 isoform P11607-2): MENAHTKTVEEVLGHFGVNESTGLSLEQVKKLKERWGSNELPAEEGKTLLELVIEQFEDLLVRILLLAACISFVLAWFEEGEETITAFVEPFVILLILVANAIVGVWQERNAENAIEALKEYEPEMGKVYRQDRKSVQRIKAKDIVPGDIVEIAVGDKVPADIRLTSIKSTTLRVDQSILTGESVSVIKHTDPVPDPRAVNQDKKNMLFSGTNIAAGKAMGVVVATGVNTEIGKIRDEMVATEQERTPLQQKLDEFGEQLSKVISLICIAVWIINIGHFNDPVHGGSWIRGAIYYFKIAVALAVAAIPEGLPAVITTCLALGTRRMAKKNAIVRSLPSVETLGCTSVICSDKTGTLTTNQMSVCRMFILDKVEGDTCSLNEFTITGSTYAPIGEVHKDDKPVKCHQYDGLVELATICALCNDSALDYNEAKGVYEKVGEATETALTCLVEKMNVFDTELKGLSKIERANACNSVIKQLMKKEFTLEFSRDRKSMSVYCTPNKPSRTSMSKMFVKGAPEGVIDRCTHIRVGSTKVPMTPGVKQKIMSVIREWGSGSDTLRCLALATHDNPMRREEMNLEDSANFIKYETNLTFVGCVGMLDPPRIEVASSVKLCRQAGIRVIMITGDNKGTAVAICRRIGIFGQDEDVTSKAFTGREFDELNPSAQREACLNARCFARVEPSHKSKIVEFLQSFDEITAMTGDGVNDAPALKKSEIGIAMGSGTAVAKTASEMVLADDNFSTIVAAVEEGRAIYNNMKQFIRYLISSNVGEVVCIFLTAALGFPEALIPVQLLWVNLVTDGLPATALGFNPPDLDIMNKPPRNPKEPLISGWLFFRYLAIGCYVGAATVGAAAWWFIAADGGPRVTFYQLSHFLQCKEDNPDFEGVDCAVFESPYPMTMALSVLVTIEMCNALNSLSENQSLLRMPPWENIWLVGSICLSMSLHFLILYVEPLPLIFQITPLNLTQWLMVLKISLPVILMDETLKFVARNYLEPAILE

EC50 [1]: 2300 nM
SMILES: Cc1ccc2cccc(NC(=O)c3ccc(OC(C)C)cc3)c2n1 [CDN1163, N-(2-methylquinolin-8-yl)-4-propan-2-yloxybenzamide]

NADH-coupled ATPase assay (activation); bell-shaped curve, aggregation suspected [2]: 28% maximal increase in Vmax at 2.5
SMILES: CCCCN(CC)c1nc(C)nc2c1c(C)cn2-c1c(C)cc(C)cc1C [CP-154526, N-butyl-N-ethyl-2,5-dimethyl-7-(2,4,6-trimethylphenyl)pyrrolo[2,3-d]pyrimidin-4-amine]

SMILES: C[C@]12CC/C(=N\OCCN)C[C@@H]1C(=O)C[C@@H]1[C@@H]2CC[C@]2(C)C(=O)CC[C@@H]12 [istaroxime, (3E,5S,8R,9S,10R,13S,14S)-3-(2-aminoethoxyimino)-10,13-dimethyl-1,2,4,5,7,8,9,11,12,14,15,16-dodecahydrocyclopenta[a]phenanthrene-6,17-dione]
IC50 (Na+/K+-ATPase NKA-α1): 470 nM
